Data as given in patent US20150118179A1, “BIOCIDAL COMPOUNDS AND METHODS FOR USING SAME” (UNIVERSITY OF MANITOBA, priority 2012, published 2015).
Where two headings read alike, the source gives them in different places.

What was measured:
[1] = tested on: methicillin resistant Staphylococcus aureus (MRSA 40065); assay type: cell-based; conditions: inoculum 10^6 cfu/ml; for Bacteria Reduction log10 / Bacteria reduction %: [Cl+] 15 ppm
Protocol: (§1) Pseudomonas aeruginosa (P. aeruginosa) (#73104, Gram-negative) and Staphylococcus aureus (MRSA) (#40065, Gram-positive) were used as the model microorganism to challenge the antibacterial function of the compounds. It should be noticed that both P. aeruginosa and MRSA are biosafety level 2 microorganisms and potentially biohazardous, therefore the following antibacterial assessments were carried out in a Biological Safety Level 2 cabinet and safety precautions were strictly followed.
(§2) Tryptone Soya agar plates were used as platforms for bacterial cell growth and were prepared following the instructions on the bottle (CM 0131, OXOID). The prepared agar was kept at 65° C. after being autoclaved and the resulting agar plates were stored in fridge at 3-4° C. All glassware and related materials were subjected to autoclave or disinfection with 70% ethanol prior to use.
(§3) Several colonies of each bacteria type were suspended in broth solutions (cation-supplemented Mueller-Hinton broth for P. aeruginosa and tryptic soy broth for MRSA) whose concentrations were equivalent to a 0.5 McFarland standard (1×10^8 cfu/ml). This suspension was then diluted 1:100 and 20 μL of the diluted suspension was further diluted in 60 ml of cation-supplemented Mueller-Hinton broth or tryptic soy broth. Then the prepared bacteria inoculums were incubated overnight at 37° C. to obtain logarithmic-phase cultures. For each microbial study, 0.2 ml (0.02 ml for P. aeruginosa) of the cell suspension was diluted in 19.8 mL (19.98 ml for P. aeruginosa) of phosphate-buffered Saline (PBS, 0.1 M Sodium phosphate monobasic, 0.1 M Sodium phosphate dibasic, pH 7.4) to give a cell concentration of 10^6-10^7 cfu/mL (10^5 cfu/ml for P. aeruginosa). 30 μL of each synthesized compound solution (0.28 N stock solution) were added into the cell suspension to achieve a [Cl^+] of 15 ppm and start timing instantly. The mixture was vortexed several times during the reaction. After contact for the desired time intervals, 1.0 ml cell suspension was withdrawn and added to 1.0 ml of 0.02 N sodium thiosulfate and/or Letheen (1% lecithin, 10% peptone and 0.5% tween 80 dissolved in PBS at pH 7.4) to quench the bactericidal effect. The quenched suspension was then serially diluted (10 times less concentrated than the previous one) and 100 μL of each dilution was placed onto agar plates. The same procedure was applied to the blanks as controls with the same matrices but with no synthesized compounds added. Bacterial colonies on the agar plates were enumerated after being incubated at 37° C. for 22 hours.
(§4) Percentage reduction of bacteria (%)=(A−B)/A×100
(§5) Where A is the number of bacterial colonies in the control (cfu/mL), and B is the number of bacteria colonies under the effect of the synthesized compounds.

P. aeruginosa (73104) = test: Antibacterial assessment in PBS suspension (Example 19); assay type: cell-based, Pseudomonas aeruginosa; conditions: inoculum 10^5 cfu/ml; for Bacteria Reduction log10 / Bacteria reduction %: [Cl+] 15 ppm
Protocol: as §1, §2, §3, §4, §5

Row | Compound | Bacteria Reduction log10 ([1]; Table 10, contact 1 min) | Bacteria reduction % ([1]; Table 10, contact 1 min) | Bacteria Reduction log10 ([1]; Table 10, contact 3 min) | Bacteria reduction % ([1]; Table 10, contact 3 min) | Bacteria Reduction log10 ([1]; Table 10, contact 5 min) | Bacteria reduction % ([1]; Table 10, contact 5 min) | Bacteria Reduction log10 ([1]; Table 10, contact 10 min) | Bacteria reduction % ([1]; Table 10, contact 10 min) | Bacteria Reduction log10 ([1]; Table 10, contact 60 min) | Bacteria reduction % ([1]; Table 10, contact 60 min) | Bacteria Reduction log10 (P. aeruginosa (73104); Table 10, contact 3 min) | Bacteria reduction % (P. aeruginosa (73104); Table 10, contact 3 min) | Bacteria Reduction log10 (P. aeruginosa (73104); Table 10, contact 10 min) | Bacteria reduction % (P. aeruginosa (73104); Table 10, contact 10 min) | Bacteria Reduction log10 (P. aeruginosa (73104); Table 10, contact 20 min) | Bacteria reduction % (P. aeruginosa (73104); Table 10, contact 20 min) | Bacteria Reduction log10 (P. aeruginosa (73104); Table 10, contact 30 min) | Bacteria reduction % (P. aeruginosa (73104); Table 10, contact 30 min) | Bacteria Reduction log10 (P. aeruginosa (73104); Table 10, contact 60 min) | Bacteria reduction % (P. aeruginosa (73104); Table 10, contact 60 min) | other results
1 | CCCCCCCCCCCC[N+](C)(C)CCCN1C(=O)NC(C)(C)C1=O [Compound 7] | 0 log10 | 0% | 0 log10 | 0% | 0.85 log10 | 85.6. % | 2.59 log10 | 99.7% | 6.26 log10 | 100% | 5.80 log10 | 100% | 5.80 log10 | 100% | 5.80 log10 | 100% | 5.80 log10 | 100% | 5.80 log10 | 100% | 
2 | CCCCCC[N+](C)(C)CCCN1C(=O)NC(C)(C)C1=O [Compound 5] |  |  |  |  |  |  |  |  |  |  |  |  |  |  |  |  |  |  |  |  | Bactericidal effect (bacteria reduction at various contact time) ([1]; Table 10, contact 1-60 min): No bactericidal effect; Bactericidal effect (bacteria reduction at various contact time) (P. aeruginosa (73104); Table 10, contact 3-60 min): No bactericidal effect
3 | CCCCCC[N+](C)(C)CCCN1C(=O)N(Cl)C(C)(C)C1=O.[Cl-] [Compound 6] | 0.66 log10 | 78.3% | 0.67 log10 | 78.9% | 0.76 log10 | 82.8% | 1.00 log10 | 89.3% | 2.11 log10 | 99.2% | 0.24 log10 | 42.7% | 0.30 log10 | 49.3% | 0.50 log10 | 68.6% | 1.52 log10 | 97.0% | 5.80 log10 | 100% | 
4 | CC1(C)C(=O)N(CC[N+](C)(C)C)C(=O)N1Cl.[Cl-] [Compound 10] | 0.74 log10 | 81.7% | 0.63 log10 | 76.7% | 0.50 log10 | 68.2% | 0.81 log10 | 84.5% | 1.33 log10 | 95.3% |  |  | 0.35 log10 | 55.1% | 5.27 log10 | 100% | 5.27 log10 | 100% | 5.27 log10 | 100% | 
5 | CCCCCCCCCCCC[N+](C)(C)CCCN1C(=O)N(Cl)C(C)(C)C1=O.[Cl-] [Compound 8] | 0.13 log10 | 26.1% | 6.26 log10 | 100% | 6.26 log10 | 100% | 6.26 log10 | 100% | 6.26 log10 | 100% | 5.80 log10 | 100% | 5.80 log10 | 100% | 5.80 log10 | 100% | 5.80 log10 | 21.4% | 5.80 log10 | 100% | 
